This assay deals with BDF1 mice, L1210 Methyl-GAG-resistant leukemia, survival T/C. In words: NCI In Vivo Anticancer Drug Screen. Data for tumor model L1210 Leukemia resistant to Methyl-GAG; NSC 32946 (subcutaneous) in B6D2F1 (BDF1) mice. The following applies: endpoint: mean survival time, higher = longer survival. Here is the method:
The antitumor activity of compounds was measured in mice bearing transplantable tumors. Survival or tumor size were measured and the results are expressed as the measurement made in the treated group (T) divided by the measurement made in the vehicle treated control group (C). The tumor model used in this assay is L1210 Leukemia resistant to Methyl-GAG; NSC 32946 (subcutaneous) in B6D2F1 (BDF1) mice

Where [1] appears, read: dose: 7.5 mg/kg/injection, schedule: Q01DX Z (ip), vehicle: carboxymethylcellulose (CMC).
[2] abbreviates: dose: 15.0 mg/kg/injection, schedule: Q01DX Z (ip), vehicle: carboxymethylcellulose (CMC).
Setting [3] is: dose: 30.0 mg/kg/injection, schedule: Q01DX Z (ip), vehicle: carboxymethylcellulose (CMC).
Where [4] appears, read: dose: 125.0 mg/kg/injection, schedule: Q01DX Z (ip), vehicle: carboxymethylcellulose (CMC).
[5] abbreviates: dose: 500.0 mg/kg/injection, schedule: Q01DX Z (ip), vehicle: carboxymethylcellulose (CMC).
Where [6] appears, read: dose: 1000.0 mg/kg/injection, schedule: Q01DX Z (ip), vehicle: carboxymethylcellulose (CMC).
The mark [7] stands for this setting: dose: 12.5 mg/kg/injection, schedule: Q01DX Z (ip), vehicle: water.
Setting [8] is: dose: 25.0 mg/kg/injection, schedule: Q01DX Z (ip), vehicle: water.
Setting [9] is: dose: 50.0 mg/kg/injection, schedule: Q01DX Z (ip), vehicle: water.
Where [10] appears, read: dose: 6.25 mg/kg/injection, schedule: Q01DX Z (ip), vehicle: carboxymethylcellulose (CMC).
Setting [11] is: dose: 12.5 mg/kg/injection, schedule: Q01DX Z (ip), vehicle: carboxymethylcellulose (CMC).
Where [12] appears, read: dose: 25.0 mg/kg/injection, schedule: Q01DX Z (ip), vehicle: carboxymethylcellulose (CMC).

Each structure is given as a SMILES string. Several values for one entry are separate records, joined by “and”; a condition that tells them apart may be missing. Equal values may be shown once. Inconclusive results and toxic doses are left out.

For the compound `[I][Hg][CH2]C1COC([CH2][Hg][I])CO1` (stereo not drawn), the T/C (dose: 1.9 mg/kg/injection, schedule: Q01DX Z (ip), vehicle: carboxymethylcellulose (CMC)) is 102 % of control; the T/C (dose: 3.75 mg/kg/injection, schedule: Q01DX Z (ip), vehicle: carboxymethylcellulose (CMC)) was 95 % of control; the T/C under setting [1] was 102 % of control; the T/C under setting [2] was 113 % of control; the T/C under setting [3] is 150 % of control; the T/C (dose: 60.0 mg/kg/injection, schedule: Q01DX Z (ip), vehicle: carboxymethylcellulose (CMC)) is 107 % of control.
Regarding `O=CN(O)CC(=O)O`, the T/C by setting is: (dose: 62.5 mg/kg/injection, schedule: Q01DX Z (ip), vehicle: carboxymethylcellulose (CMC)) 108 % of control; under setting [4], 101 % of control; (dose: 250.0 mg/kg/injection, schedule: Q01DX Z (ip), vehicle: carboxymethylcellulose (CMC)) 101 % of control; under setting [5], 102 % of control and 110 % of control; under setting [6], 105 % of control.
Consider `O=C(Nc1ccc(C2=NCCN2)cc1)c1cccc(C(=O)Nc2ccc(C3=NCCN3)cc2)c1`, for which the T/C (dose: 1.2 mg/kg/injection, schedule: Q01DX Z (ip), vehicle: water) was 102 % of control; the T/C (dose: 2.4 mg/kg/injection, schedule: Q01DX Z (ip), vehicle: water) was 108 % of control; the T/C (dose: 9.4 mg/kg/injection, schedule: Q01DX Z (ip), vehicle: water) was 211 % of control; the T/C under setting [7] is 223 % of control; the T/C (dose: 18.8 mg/kg/injection, schedule: Q01DX Z (ip), vehicle: water) was 226 % of control; the T/C under setting [8] is 236 % of control. Further, the T/C was 202 % of control (dose: 37.5 mg/kg/injection, schedule: Q01DX Z (ip), vehicle: carboxymethylcellulose (CMC)); 287 % of control (dose: 37.5 mg/kg/injection, schedule: Q01DX Z (ip), vehicle: water); 113 % of control under setting [9]; 224 % of control (dose: 75.0 mg/kg/injection, schedule: Q01DX Z (ip), vehicle: carboxymethylcellulose (CMC)); 247 % of control (dose: 150.0 mg/kg/injection, schedule: Q01DX Z (ip), vehicle: carboxymethylcellulose (CMC)).
For the compound `CN(C)c1ccc(/C=C/c2ccnc3ccccc23)cc1`, the T/C (dose: 3.1 mg/kg/injection, schedule: Q01DX Z (ip), vehicle: water) was 102 % of control; the T/C (dose: 3.12 mg/kg/injection, schedule: Q01DX Z (ip), vehicle: carboxymethylcellulose (CMC)) is 100 % of control; the T/C under setting [10] is 96 % of control; the T/C (dose: 6.25 mg/kg/injection, schedule: Q01DX Z (ip), vehicle: water) is 97 % of control; the T/C under setting [11] is 94 % of control; the T/C under setting [7] was 97 % of control. Further, the T/C is 100 % of control under setting [12]; 100 % of control under setting [8]; 94 % of control (dose: 50.0 mg/kg/injection, schedule: Q01DX Z (ip), vehicle: carboxymethylcellulose (CMC)); 91 % of control under setting [9]; 100 % of control (dose: 100.0 mg/kg/injection, schedule: Q01DX Z (ip), vehicle: carboxymethylcellulose (CMC)).
Consider `CN(N=O)C(N)=O`, for which the T/C was 97 % of control (dose: 3.2 mg/kg/injection, schedule: Q01DX Z (ip), vehicle: saline); 113 % of control (dose: 6.3 mg/kg/injection, schedule: Q01DX Z (ip), vehicle: saline); 115 % of control (dose: 12.5 mg/kg/injection, schedule: Q01DX Z (ip), vehicle: saline); 178 % of control (dose: 25.0 mg/kg/injection, schedule: Q01DX Z (ip), vehicle: saline).
Turning to `COC12C(COC(N)=O)C3=C(C(=O)C(C)=C(N)C3=O)N1CC1C2N1C` (stereo not drawn), the T/C is, setting by setting: (dose: 2.5 mg/kg/injection, schedule: Q01DX Z (ip), vehicle: carboxymethylcellulose (CMC)) 96 % of control; (dose: 5.0 mg/kg/injection, schedule: Q01DX Z (ip), vehicle: carboxymethylcellulose (CMC)) 103 % of control; (dose: 10.0 mg/kg/injection, schedule: Q01DX Z (ip), vehicle: carboxymethylcellulose (CMC)) 122 % of control; (dose: 20.0 mg/kg/injection, schedule: Q01DX Z (ip), vehicle: carboxymethylcellulose (CMC)) 88 % of control.
In the case of `CCCCCCCCCCCCNCCCCCCCCCCCC`, the T/C was 94 % of control under setting [1], 101 % of control under setting [2] and 103 % of control under setting [3].
For the compound `CN(C)c1ccc(Nc2c3ccccc3nc3ccccc23)cc1`, the T/C (dose: 1.6 mg/kg/injection, schedule: Q01DX Z (ip), vehicle: carboxymethylcellulose (CMC)) is 105 % of control; the T/C (dose: 3.1 mg/kg/injection, schedule: Q01DX Z (ip), vehicle: carboxymethylcellulose (CMC)) is 99 % of control; the T/C under setting [10] was 100 % of control; the T/C under setting [11] was 103 % of control; the T/C under setting [12] was 115 % of control; the T/C (dose: 200.0 mg/kg/injection, schedule: Q01DX Z (ip), vehicle: carboxymethylcellulose (CMC)) is 91 % of control.
With `O=c1[nH]c(=O)n(C2CC(O)C(CO)O2)cc1Br` (stereo not drawn), the T/C is 95 % of control (dose: 31.0 mg/kg/injection, schedule: Q01DX Z (ip), vehicle: carboxymethylcellulose (CMC)); 92 % of control (dose: 63.0 mg/kg/injection, schedule: Q01DX Z (ip), vehicle: carboxymethylcellulose (CMC)); 113 % of control under setting [4]; 118 % of control under setting [5]; 120 % of control under setting [6].
For `CCC(=O)O[C@H]1CC[C@H]2[C@@H]3CCC4=CC(=O)CC[C@]4(C)[C@H]3CC[C@]12C`, the T/C is 101 % of control (dose: 37.5 mg/kg/injection, schedule: Q01DX Z (sc), vehicle: steriod suspending solution); 120 % of control (dose: 60.0 mg/kg/injection, schedule: Q01DX Z (sc), vehicle: steriod suspending solution); 104 % of control (dose: 75.0 mg/kg/injection, schedule: Q01DX Z (sc), vehicle: steriod suspending solution); 98 % of control (dose: 150.0 mg/kg/injection, schedule: Q01DX Z (sc), vehicle: steriod suspending solution); 98 % of control and 119 % of control (dose: 300.0 mg/kg/injection, schedule: Q01DX Z (sc), vehicle: steriod suspending solution); 96 % of control (dose: 1500.0 mg/kg/injection, schedule: Q01DX Z (sc), vehicle: steriod suspending solution).
Turning to `CSCS(=O)C[C@H](CO)NC(=O)/C=C/c1c(C)[nH]c(=O)[nH]c1=O` (stereo partly drawn), the T/C is, setting by setting: (dose: 0.06 mg/kg/injection, schedule: Q01DX Z (ip), vehicle: saline) 97 % of control; (dose: 0.12 mg/kg/injection, schedule: Q01DX Z (ip), vehicle: saline) 97 % of control; (dose: 0.25 mg/kg/injection, schedule: Q01DX Z (ip), vehicle: saline) 106 % of control and 113 % of control; (dose: 0.5 mg/kg/injection, schedule: Q01DX Z (ip), vehicle: saline) 112 % of control; (dose: 1.0 mg/kg/injection, schedule: Q01DX Z (ip), vehicle: saline) 96 % of control.
On to `COS(C)(=O)=O`, for which the T/C under setting [7] was 101 % of control; the T/C under setting [8] was 98 % of control and 99 % of control; the T/C under setting [9] is 103 % of control and 112 % of control.
Regarding `CC[C@H](c1ccc(O)cc1)[C@@H](CC)c1ccc(O)cc1`, the T/C is, setting by setting: (dose: 4.0 mg/kg/injection, schedule: Q01DX Z (sc), vehicle: steriod suspending solution) 100 % of control; (dose: 8.0 mg/kg/injection, schedule: Q01DX Z (sc), vehicle: steriod suspending solution) 100 % of control; (dose: 16.0 mg/kg/injection, schedule: Q01DX Z (sc), vehicle: steriod suspending solution) 95 % of control; (dose: 32.0 mg/kg/injection, schedule: Q01DX Z (sc), vehicle: steriod suspending solution) 105 % of control.
`NC(=O)c1ccc(N)nc1`: the T/C was 106 % of control (dose: 0.31 mg/kg/injection, schedule: Q01DX Z (ip), vehicle: saline); 102 % of control (dose: 0.31 mg/kg/injection, schedule: Q01DX Z (ip), vehicle: water); 101 % of control (dose: 0.63 mg/kg/injection, schedule: Q01DX Z (ip), vehicle: saline); 115 % of control (dose: 0.63 mg/kg/injection, schedule: Q01DX Z (ip), vehicle: water); 98 % of control (dose: 1.25 mg/kg/injection, schedule: Q01DX Z (ip), vehicle: saline).

(Values after PubChem BioAssay AID306 (DTP/NCI, 2004).)
